Experiment: Validation in adult cohort of the VANISH trial randomized to hydrocortisone or placebo (n=97)
Format: in vivo, human
Conditions: adult VANISH subset; controlled for illness severity using the APACHE score; lower Z values
Description: The model was also tested using a publicly available transcriptomic data set from the Vasopressin vs. Norepinephrine as Initial Therapy for Septic Shock (VANISH) trial (9, 23). The VANISH trial compared the efficacy of vasopressin to norepinephrine as initial vasopressor therapy for septic shock among adults. Patients who reached a prespecified dose of either vasopressor were further randomized to receive hydrocortisone or placebo. Details of the procedures for assigning the cohort randomized to hydrocortisone or placebo to pediatric endotypes A or B were previously described (10, 15).
The findings above were further validated using a subset of adult subjects from the VANISH trial who were randomized to placebo or hydrocortisone, and for whom there existed publicly available transcriptomic data (n=97). […] The model supports that separation between groups treated with hydrocortisone and those treated with placebo occurs as the Z value decreases.

Compound: C[C@]12CCC(=O)C=C1CC[C@@H]1[C@@H]2[C@@H](O)C[C@@]2(C)[C@H]1CC[C@]2(O)C(=O)CO [hydrocortisone]
- Odds of death at 28 days by hydrocortisone exposure and Z value: no hydrocortisone exposure and lower Z values tended to have lower odds of death at 28 days
